Measurements as given in US9464061B2, “N-hydroxylamino-barbituric acid derivatives” (priority 2014, dated 2016).
Marks after values point to notes of the source that are not given here.

Legend:
[1] = pH 7.4
physchem [2] = details: buffer, pH 7.4
[3] = pH 7.4; remark: listed apart in the source
physchem [4] = details: buffer, pH 7.4; remark: listed apart in the source
[5] = reported in WO 2013/059194; cited from earlier work
[6] = UV-vis method for pKa determination of compound 4 (Example 20); assay type: physicochemical; details: 0.10 M phosphate buffer, 25° C., read-out: pKa (ring nitrogen proton)
Experimental: A 1 mM solution of compound 4 is prepared in acetonitrile. To a cuvette containing 3.0 mL of 0.10 M phosphate buffer of the desired pH at 25° C. is added 50 μL of the compound 4 solution. The solution is mixed quickly by rapidly drawing up and dispensing the solution with a pipette. Absorbance spectra are collected immediately after the solution has mixed and settled.

In the case of `CCCC(C)C1(NO)C(=O)NC(=O)NC1=O` (stereo not drawn) [Compound 12, 5-(N-hydroxylamino)-5-(1-methylbutyl)-barbituric acid], the HNO yield [1] is reported as 102, the “k (rate of disappearance of compound and appearance of BA byproduct, single exponential fit)” value [1] is reported as 5e-06 s⁻¹ and the half-life (physchem [2]) is reported as 38.5 h.

In the case of `CCC(C)C1(NO)C(=O)NC(=O)NC1=O` (stereo not drawn) [Compound 18, 5-(N-hydroxylamino)-5-(1-methylpropyl)-barbituric acid], the HNO yield [1] is reported as 102, the “k (rate of disappearance of compound and appearance of BA byproduct, single exponential fit)” value [1] is reported as 5.9e-06 s⁻¹ and the half-life (physchem [2]) is reported as 32.9 h.

With `C=CCC1(NO)C(=O)NC(=O)NC1=O` [Compound 9, 5-(N-hydroxylamino)-5-(2-propen-1-yl)-barbituric acid] the “k (rate of appearance of BA byproduct, single exponential fit)” value [3] was 0.00013 s⁻¹ and the half-life (physchem [4]) was 1.5 h.

For `O=C1NC(=O)C(Cc2ccccc2)(NO)C(=O)N1` [Compound 5, 5-(N-hydroxylamino)-5-benzyl-barbituric acid], the “k (rate of appearance of BA byproduct, single exponential fit)” value [3] was 0.00013 s⁻¹ and the half-life (physchem [4]) was 1.53 h.

For `CC1(NO)C(=O)NC(=O)NC1=O` [Compound 17, 5-(N-hydroxylamino)-5-methyl-barbituric acid], the “k (rate of appearance of BA byproduct, single exponential fit)” value [3] was 0.00025 s⁻¹ and the half-life (physchem [4]) was 0.767 h.

With `O=C1NC(=O)C(Cc2ccccc2Cl)(NO)C(=O)N1` [Compound 14, 5-(N-hydroxylamino)-5-(2-chlorobenzyl)-barbituric acid] the “k (rate of appearance of BA byproduct, single exponential fit)” value [3] was 0.00029 s⁻¹ and the half-life (physchem [4]) was 0.683 h.

With `COc1ccc(CC2(NO)C(=O)NC(=O)NC2=O)cc1` [Compound 6, 5-(N-hydroxylamino)-5-(4-methoxybenzyl)-barbituric acid] the “k (rate of appearance of BA byproduct, single exponential fit)” value [3] was 8.8e-05 s⁻¹ and the half-life (physchem [4]) was 2.2 h.

For `CCC1(NO)C(=O)N(C)C(=O)N(C)C1=O` [5-ethyl HABA, 5-(N-hydroxylamine)-5-ethyl-N,N-dimethylbarbituric acid], the HNO production [5] is given as “less than the desired amount of HNO”.

For `CC(C)CC1(NO)C(=O)NC(=O)NC1=O` [Compound 10, 5-(N-hydroxylamino)-5-(2-methylpropyl)-barbituric acid], the “k (rate of appearance of BA byproduct, single exponential fit)” value [3] was 0.0005 s⁻¹ and the half-life (physchem [4]) was 0.383 h.

In the case of `CCC1(NO)C(=O)NC(=O)NC1=O` [Compound 4, 5-(N-hydroxylamino)-5-ethyl-barbituric acid], the pKa [6] is reported as roughly 7.4, the melting point is reported as greater than 300 °C and the HNO yield [1] is reported as 97^d. The “k (rate of disappearance of compound and appearance of BA byproduct, single exponential fit)” value [1] was 0.00011 s⁻¹ and the “k (rate of appearance of BA byproduct, single exponential fit)” value [3] was 3.7e-05 s⁻¹.

For `O=C1NC(=O)C(Cc2ccc(Cl)cc2)(NO)C(=O)N1` [Compound 7, 5-(N-hydroxylamino)-5-(4-chlorobenzyl)-barbituric acid], the “k (rate of appearance of BA byproduct, single exponential fit)” value [3] was 0.00016 s⁻¹ and the half-life (physchem [4]) was 1.18 h.

With `O=C1NC(=O)C(Cc2cccs2)(NO)C(=O)N1` [Compound 16, 5-(N-hydroxylamino)-5-(2-thienylmethyl)-barbituric acid] the “k (rate of appearance of BA byproduct, single exponential fit)” value [3] was 0.00029 s⁻¹ and the half-life (physchem [4]) was 0.667 h.

For `CN1C(=O)N(C)C(=O)C(Cc2ccc(Cl)cc2)(NO)C1=O` [Compound 3, 5-(N-hydroxylamino)-5-(4-chlorobenzyl)-N,N-dimethylbarbituric acid], the melting point was 155 to 157 °C, the HNO yield [1] was 92^d and the “k (rate of disappearance of compound and appearance of BA byproduct, single exponential fit)” value [1] was 0.0006 s⁻¹. The “k (rate of appearance of BA byproduct, single exponential fit)” value [3] was 0.00025 s⁻¹.

With `CN1C(=O)N(C)C(=O)C(Cc2ccccc2)(NO)C1=O` [Compound 1, 5-(N-hydroxylamino)-5-benzyl-N,N-dimethylbarbituric acid] the melting point was 155 to 157 °C, the HNO yield [1] was 99^d and the “k (rate of disappearance of compound and appearance of BA byproduct, single exponential fit)” value [1] was 0.00031 s⁻¹. The “k (rate of appearance of BA byproduct, single exponential fit)” value [3] was 0.00015 s⁻¹.

With `COc1ccc(CC2(NO)C(=O)N(C)C(=O)N(C)C2=O)cc1` [Compound 2, 5-(N-hydroxylamino)-5-(4-methoxybenzyl)-N,N-dimethylbarbituric acid] the melting point was 108 to 110 °C, the HNO yield [1] was 96^d and the “k (rate of disappearance of compound and appearance of BA byproduct, single exponential fit)” value [1] was 0.00015 s⁻¹. For the same compound, the “k (rate of appearance of BA byproduct, single exponential fit)” value [3] was 8e-05 s⁻¹.

For `CC(C)C1(NO)C(=O)NC(=O)NC1=O` [Compound 11, 5-(N-hydroxylamino)-5-(1-methylethyl)-barbituric acid], the HNO yield [1] was 98, the “k (rate of disappearance of compound and appearance of BA byproduct, single exponential fit)” value [1] was 3.1e-06 s⁻¹ and the half-life (physchem [2]) was 62.4 h.

For `O=C1NC(=O)C(NO)(c2ccccc2)C(=O)N1` [Compound 8, 5-(N-hydroxylamino)-5-phenyl-barbituric acid], the “k (rate of appearance of BA byproduct, single exponential fit)” value [3] was 0.00082 s⁻¹ and the half-life (physchem [4]) was 0.233 h.
